Experimental data: ChEMBL document CHEMBL1201862, “PubChem BioAssay data set” (2004)
The source made the active and inactive calls.

Columns and labels:
[1] = biological target: Ephrin type-A receptor 4 (Mus musculus, UniProt Q03137); assay: EphA4 ligand-binding antagonists – biochemical, colorimetric, mouse EphA4, primary screen (AID 689); type: functional
[2] = biological target: Guanyl-specific ribonuclease T1 (Aspergillus oryzae (strain ATCC 42149 / RIB 40), UniProt P00651); assay: inhibition of ribonuclease T1 activity – biochemical, fluorescence polarization, 1536-well, counter-screen for TPT1 inhibitor project, dose response (AID 2167)
Guanyl-specific ribonuclease T1, sequence (P00651 whole entry): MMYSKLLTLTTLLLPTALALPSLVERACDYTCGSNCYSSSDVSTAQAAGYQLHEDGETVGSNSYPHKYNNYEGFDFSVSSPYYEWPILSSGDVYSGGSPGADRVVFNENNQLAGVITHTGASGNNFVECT

[3] = biological target: Cytochrome P450 2C19 (Homo sapiens, UniProt P33261); assay: Cytochrome panel assay with activity outcomes. Panel member name: p450-cyp2c19 Compounds with AC50 equal or less than 10 uM are considered active; type: functional; conditions: read-out: AC50
Cytochrome P450 2C19, sequence (P33261 whole entry): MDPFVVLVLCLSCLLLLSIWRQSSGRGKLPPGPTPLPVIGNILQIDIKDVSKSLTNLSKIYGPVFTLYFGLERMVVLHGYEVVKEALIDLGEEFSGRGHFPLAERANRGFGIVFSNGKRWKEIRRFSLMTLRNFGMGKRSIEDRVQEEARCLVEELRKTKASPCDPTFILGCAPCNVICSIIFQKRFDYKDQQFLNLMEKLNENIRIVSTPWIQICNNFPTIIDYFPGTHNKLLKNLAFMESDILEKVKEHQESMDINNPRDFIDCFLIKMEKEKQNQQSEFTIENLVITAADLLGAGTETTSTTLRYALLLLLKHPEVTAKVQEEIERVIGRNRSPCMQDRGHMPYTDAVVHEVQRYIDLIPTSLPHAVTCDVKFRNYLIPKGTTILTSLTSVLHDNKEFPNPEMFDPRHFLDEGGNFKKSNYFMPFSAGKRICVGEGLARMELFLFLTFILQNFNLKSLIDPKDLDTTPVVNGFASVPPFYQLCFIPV

[4] = biological target: Large T antigen (Simian virus 40, UniProt P03070); type: functional, Betapolyomavirus macacae;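 note: Confirmatory-stage PubChem screen for compounds that inhibit SV40 T antigen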
Large T antigen, sequence (P03070 whole entry): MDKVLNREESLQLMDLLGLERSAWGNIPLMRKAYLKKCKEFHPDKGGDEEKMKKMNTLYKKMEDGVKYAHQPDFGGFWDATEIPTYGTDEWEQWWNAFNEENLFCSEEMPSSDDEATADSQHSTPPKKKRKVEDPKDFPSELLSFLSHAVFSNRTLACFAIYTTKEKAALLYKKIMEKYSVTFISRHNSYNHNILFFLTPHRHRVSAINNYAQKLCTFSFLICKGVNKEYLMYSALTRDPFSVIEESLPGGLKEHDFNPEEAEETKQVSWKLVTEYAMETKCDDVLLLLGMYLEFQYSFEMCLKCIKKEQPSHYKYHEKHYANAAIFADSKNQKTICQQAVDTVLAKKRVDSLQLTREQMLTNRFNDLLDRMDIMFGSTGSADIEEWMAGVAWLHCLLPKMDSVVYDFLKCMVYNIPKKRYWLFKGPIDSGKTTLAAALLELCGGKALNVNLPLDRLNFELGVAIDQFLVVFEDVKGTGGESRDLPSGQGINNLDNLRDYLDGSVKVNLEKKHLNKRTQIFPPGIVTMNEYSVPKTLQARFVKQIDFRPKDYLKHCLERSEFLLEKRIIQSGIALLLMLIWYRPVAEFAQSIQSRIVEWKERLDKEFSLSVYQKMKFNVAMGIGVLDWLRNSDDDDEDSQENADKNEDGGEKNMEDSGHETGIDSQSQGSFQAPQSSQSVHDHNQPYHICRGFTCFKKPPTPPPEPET

[5] = tested on: HEK293; assay: EBV LMP1 TES2 canonical NF-kB signalling blockers – cell-based, HEK293, luciferase, cherry-pick, dose response (AID 588343); type: functional; conditions: Homo sapiens
[6] = Counterscreen for AddAB inhibitors: absorbance-based bacterial cell-based high throughput dose response assay for inhibitors of bacterial viability. [Related pubchem assays (depositor defined):AID435030, AID449728, AID449731, AID488942, AID488955, AID488956]; type: functional
[7] = biological target: T1, Cysteine protease ATG4B (Homo sapiens, UniProt Q9Y4P1); type: functional;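 note: Fluorescence-based dose-response confirmation assay measuring inhibition of ATG4B activity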
T1 sequence (Q9Y4P1 whole entry): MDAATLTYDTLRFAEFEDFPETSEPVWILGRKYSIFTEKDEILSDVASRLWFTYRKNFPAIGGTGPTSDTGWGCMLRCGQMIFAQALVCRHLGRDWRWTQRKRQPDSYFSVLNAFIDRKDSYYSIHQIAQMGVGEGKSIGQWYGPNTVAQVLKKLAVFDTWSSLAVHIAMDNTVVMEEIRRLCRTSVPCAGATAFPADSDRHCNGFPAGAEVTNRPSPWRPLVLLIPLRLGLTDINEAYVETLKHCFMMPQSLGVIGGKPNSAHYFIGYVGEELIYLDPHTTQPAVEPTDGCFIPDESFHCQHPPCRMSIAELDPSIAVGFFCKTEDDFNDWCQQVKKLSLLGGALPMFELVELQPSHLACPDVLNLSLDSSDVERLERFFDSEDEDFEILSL

[8] = tested on: INS1; assay: INS-1E survival protection against cytokine death – cell-based, luminescence, retest, dose response (AID 449756); type: functional; conditions: Rattus norvegicus;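 note: cell death triggered by IL-1 beta plus TNF-alpha plus IFN-gamma mixture; protective hits raise ATP signal compared with cytokine alone wells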
[9] = biological target: ATP-dependent molecular chaperone HSP82 (Candida albicans (strain WO-1) (Yeast), UniProt C4YTQ8); assay: steroid-induced GRE reporter decrease in yeast – S. cerevisiae, luminescence, Hsp90 inhibitor project, dose response (AID 2400); type: functional, cell-based;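 note: beta-galactosidase luminescence from glucocorticoid response element reporter as proxy for Hsp90 function; inhibitor potency where signal loss means Hsp90 inhibition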
ATP-dependent molecular chaperone HSP82, sequence (C4YTQ8 whole entry): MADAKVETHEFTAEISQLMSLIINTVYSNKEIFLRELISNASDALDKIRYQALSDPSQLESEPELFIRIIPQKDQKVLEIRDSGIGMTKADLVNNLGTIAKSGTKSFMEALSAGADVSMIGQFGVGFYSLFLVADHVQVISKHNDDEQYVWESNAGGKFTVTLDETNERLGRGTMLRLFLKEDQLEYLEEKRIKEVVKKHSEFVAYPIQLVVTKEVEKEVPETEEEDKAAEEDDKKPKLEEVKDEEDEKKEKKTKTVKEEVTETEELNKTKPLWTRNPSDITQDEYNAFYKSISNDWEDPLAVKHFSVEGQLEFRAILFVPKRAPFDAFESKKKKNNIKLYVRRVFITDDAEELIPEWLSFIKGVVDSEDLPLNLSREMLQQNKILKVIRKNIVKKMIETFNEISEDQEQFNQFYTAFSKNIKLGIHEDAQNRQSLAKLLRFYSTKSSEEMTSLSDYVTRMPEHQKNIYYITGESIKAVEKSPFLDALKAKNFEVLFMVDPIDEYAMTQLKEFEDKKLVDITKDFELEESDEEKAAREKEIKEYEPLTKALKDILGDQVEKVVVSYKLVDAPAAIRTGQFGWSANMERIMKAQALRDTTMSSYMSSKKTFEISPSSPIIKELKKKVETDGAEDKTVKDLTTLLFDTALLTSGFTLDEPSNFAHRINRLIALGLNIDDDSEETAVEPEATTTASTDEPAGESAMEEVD

[10] = cells; type: functional, cell-based
[11] = alpha-synuclein stem-loop luciferase translation blockers – H4 neuroglioma cells, luminescence, confirmation (AID 1988); type: functional, cell-based
[12] = general mammalian cell viability loss – activator set, cherry-pick, cytotoxicity control for miR-122 modulator project, dose response (AID 720690); type: functional, cell-based;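 note: HEK293T human cells scored for general mammalian cytotoxicity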
[13] = biological target: T2, Insulin-degrading enzyme (Homo sapiens, UniProt P14735); assay: recombinant IDE activation, cell-free – biochemical, fluorescence polarization, counter-screen for IDE activator project, dose response (AID 588681)
T2 sequence (P14735 whole entry): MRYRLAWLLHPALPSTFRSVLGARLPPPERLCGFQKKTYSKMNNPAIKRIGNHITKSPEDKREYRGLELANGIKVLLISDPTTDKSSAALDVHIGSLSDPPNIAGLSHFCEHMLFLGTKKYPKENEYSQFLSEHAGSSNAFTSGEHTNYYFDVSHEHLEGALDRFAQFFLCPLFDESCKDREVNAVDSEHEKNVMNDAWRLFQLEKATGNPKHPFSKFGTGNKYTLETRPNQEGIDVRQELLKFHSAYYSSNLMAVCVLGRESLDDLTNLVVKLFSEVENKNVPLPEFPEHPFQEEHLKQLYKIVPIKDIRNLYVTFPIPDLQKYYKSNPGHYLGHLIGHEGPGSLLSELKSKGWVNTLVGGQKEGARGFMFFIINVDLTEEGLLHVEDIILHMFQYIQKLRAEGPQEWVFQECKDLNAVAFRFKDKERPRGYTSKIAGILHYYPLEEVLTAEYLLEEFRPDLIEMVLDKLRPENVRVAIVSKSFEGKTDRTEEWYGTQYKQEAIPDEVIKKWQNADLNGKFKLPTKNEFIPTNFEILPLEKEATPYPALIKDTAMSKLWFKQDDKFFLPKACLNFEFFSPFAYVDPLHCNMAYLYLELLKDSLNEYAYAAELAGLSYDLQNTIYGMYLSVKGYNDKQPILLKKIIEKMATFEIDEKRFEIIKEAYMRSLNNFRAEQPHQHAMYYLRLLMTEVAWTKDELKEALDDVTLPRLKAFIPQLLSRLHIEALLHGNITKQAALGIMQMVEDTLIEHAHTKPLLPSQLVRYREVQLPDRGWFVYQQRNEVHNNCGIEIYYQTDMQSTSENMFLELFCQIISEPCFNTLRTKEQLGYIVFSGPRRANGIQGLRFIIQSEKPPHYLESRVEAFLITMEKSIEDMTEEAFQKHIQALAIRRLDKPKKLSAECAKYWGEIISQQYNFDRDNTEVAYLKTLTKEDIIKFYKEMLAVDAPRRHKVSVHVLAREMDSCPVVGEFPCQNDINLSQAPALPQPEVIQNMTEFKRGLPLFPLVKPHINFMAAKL

[14] = tested on: HEK293; assay: optical interference in Abeta FP readout, dose response, artefact control for IDE activator project, biochemical, fluorescence polarization (AID 588442); type: functional, cell-based; conditions: Homo sapiens
[15] = tested on: HeLa; assay: viability loss in HeLa cells – cell-based, 24 h, cherry-picked samples, cytotoxicity control, dose response (AID 504726); type: functional; conditions: Homo sapiens;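 note: potency for cytotoxicity as loss of luminescence signal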
[16] = tested on: HEK293; assay: membrane integrity loss in HEK cells – cell-based, fluorescence, cytotoxicity control for IDE activator project, dose response (AID 588440); type: functional; conditions: Homo sapiens;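 note: cytotoxicity by LDH release measuring loss of membrane integrity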
[17] = biological target: UDP-galactopyranose mutase (Mycobacterium tuberculosis, UniProt P9WIQ1); assay: Inhibitors of Mycobacterium tuberculosis UDP-galactopyranose mutase (UGM) enzyme Measured in Biochemical System Using Plate Reader - 2105-02_Inhibitor_Dose_CherryPick_Activity. [Related pubchem assays (depositor defined):AID504439]
UDP-galactopyranose mutase, sequence (P9WIQ1 whole entry): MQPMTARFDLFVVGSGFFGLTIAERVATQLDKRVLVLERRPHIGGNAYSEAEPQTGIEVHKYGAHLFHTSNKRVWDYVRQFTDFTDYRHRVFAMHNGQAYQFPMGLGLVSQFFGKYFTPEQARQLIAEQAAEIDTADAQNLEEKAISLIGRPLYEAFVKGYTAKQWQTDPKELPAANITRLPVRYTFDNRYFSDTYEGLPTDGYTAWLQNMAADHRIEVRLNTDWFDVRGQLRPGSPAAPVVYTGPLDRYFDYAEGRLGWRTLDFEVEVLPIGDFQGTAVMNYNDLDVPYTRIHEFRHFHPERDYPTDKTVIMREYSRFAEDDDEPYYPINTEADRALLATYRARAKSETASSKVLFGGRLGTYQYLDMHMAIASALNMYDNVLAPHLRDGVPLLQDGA

[18] = biological target: Beta-lactamase (Salmonella choleraesuis (strain SC-B67), UniProt Q5J463)
Beta-lactamase, sequence (Q5J463 whole entry): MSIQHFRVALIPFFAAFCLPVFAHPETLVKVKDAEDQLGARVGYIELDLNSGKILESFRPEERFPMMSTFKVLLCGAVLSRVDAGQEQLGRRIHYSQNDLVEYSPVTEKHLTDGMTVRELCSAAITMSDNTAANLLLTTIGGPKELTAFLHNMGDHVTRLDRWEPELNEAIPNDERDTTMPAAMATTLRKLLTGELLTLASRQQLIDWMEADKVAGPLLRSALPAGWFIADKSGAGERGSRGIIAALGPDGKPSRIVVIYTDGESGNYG

Ephrin type-A receptor 4, sequence (Q03137 whole entry): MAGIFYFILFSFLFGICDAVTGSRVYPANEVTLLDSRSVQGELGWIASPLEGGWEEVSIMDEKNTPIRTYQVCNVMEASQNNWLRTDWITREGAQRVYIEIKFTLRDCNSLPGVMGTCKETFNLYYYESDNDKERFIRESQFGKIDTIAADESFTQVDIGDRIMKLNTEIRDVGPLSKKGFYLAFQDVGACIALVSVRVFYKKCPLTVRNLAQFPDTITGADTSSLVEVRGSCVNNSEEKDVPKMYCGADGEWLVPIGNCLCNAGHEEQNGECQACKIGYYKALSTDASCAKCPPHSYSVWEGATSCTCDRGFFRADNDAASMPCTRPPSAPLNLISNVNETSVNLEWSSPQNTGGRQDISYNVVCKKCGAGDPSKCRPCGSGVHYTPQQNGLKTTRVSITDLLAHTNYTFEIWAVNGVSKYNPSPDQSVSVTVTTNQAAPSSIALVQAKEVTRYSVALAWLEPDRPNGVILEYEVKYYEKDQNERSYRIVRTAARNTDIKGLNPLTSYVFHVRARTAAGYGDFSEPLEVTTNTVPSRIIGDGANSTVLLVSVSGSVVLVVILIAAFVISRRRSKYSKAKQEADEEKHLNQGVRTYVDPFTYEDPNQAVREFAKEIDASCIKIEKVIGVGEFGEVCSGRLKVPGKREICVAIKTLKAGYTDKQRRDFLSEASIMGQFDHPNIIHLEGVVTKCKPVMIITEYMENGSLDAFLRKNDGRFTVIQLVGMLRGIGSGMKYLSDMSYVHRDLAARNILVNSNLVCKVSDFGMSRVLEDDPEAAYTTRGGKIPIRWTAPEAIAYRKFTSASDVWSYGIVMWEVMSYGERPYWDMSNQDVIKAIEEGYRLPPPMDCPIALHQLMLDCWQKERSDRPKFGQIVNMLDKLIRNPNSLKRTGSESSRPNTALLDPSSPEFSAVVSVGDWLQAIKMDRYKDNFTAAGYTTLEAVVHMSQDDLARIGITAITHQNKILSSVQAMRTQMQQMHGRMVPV

With `CC(C)C(C(=O)O)N1C(=O)/C(=C/C=C/c2ccco2)SC1=S` (stereo not drawn) the IC50 [1] was 5.26 µM (active), the IC50 [2] was 9.85 µM (active) and the AC50 [3] was 10 µM (inconclusive). For the same compound, the IC50 [4] was 24.6 µM (active).
For `Oc1ccc2ccccc2c1/C=N/Nc1nnc(-c2ncc[nH]2)c2ccccc12`, the AC50 [5] was 1.79 µM (active), the IC50 [6] was > 119 µM (inactive) and the IC50 [7] was 2.53 µM (active). For the same compound, the AC50 [8] was 0.424 µM (active), the EC50 [9] was 3.23 µM (active) and the EC50 [10] was > 350 µM (not active). For the same compound, the EC50 [11] was 0.224 µM (active) and the AC50 [12] was 3.09 µM (active).
In the case of `O=C1CCN2C=Nc3cccc4ccc1c2c34`, the EC50 [13] is reported as > 54.7 µM (inactive), the EC50 [14] is reported as 17 µM (inactive) and the AC50 [15] is reported as 20.2 µM (active). For the same compound, the IC50 [16] was > 89.2 µM (inactive), the AC50 [17] was 2.33 µM (active) and the IC50 [18] was 7.55 µM (active).
